Assay results taken from patent US20210171598A1, “PEPTIDE HORMONE WITH ONE OR MORE O-GLYCANS” (priority 2017, published 2021).
Groups on a side chain read outwards from the residue. No end group written: not given here.

T1: insulin-degrading enzyme (IDE) (Homo sapiens, UniProt P14735)
T1 construct: purchased R&D Systems
T1 sequence (P14735 1-1019): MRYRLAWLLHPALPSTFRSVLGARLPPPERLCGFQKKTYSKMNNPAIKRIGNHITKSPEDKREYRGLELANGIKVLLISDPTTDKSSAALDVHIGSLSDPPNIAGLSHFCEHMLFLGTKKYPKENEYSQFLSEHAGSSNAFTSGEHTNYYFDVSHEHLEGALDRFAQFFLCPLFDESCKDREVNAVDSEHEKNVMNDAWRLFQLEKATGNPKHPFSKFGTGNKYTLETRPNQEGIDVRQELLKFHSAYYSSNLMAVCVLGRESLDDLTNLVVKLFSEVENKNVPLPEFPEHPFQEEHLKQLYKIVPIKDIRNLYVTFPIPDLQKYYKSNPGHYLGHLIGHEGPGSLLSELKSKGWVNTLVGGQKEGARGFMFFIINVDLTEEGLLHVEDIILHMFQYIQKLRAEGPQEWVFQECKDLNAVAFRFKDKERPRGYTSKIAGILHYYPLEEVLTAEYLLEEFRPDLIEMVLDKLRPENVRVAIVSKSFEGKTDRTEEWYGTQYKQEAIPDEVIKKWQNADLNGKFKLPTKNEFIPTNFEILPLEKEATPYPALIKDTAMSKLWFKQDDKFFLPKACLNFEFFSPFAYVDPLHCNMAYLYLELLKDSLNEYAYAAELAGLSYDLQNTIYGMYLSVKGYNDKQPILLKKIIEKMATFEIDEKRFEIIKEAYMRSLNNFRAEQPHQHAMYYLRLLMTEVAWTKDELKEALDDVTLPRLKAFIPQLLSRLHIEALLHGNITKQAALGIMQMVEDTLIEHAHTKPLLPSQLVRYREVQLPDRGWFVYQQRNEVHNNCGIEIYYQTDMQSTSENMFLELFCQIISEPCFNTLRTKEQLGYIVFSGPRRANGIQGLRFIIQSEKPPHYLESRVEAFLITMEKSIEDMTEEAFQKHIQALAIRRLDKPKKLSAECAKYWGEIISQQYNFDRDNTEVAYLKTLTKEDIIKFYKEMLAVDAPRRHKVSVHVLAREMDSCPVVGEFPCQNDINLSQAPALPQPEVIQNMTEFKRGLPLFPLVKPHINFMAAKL

T2: VIP/PACAP receptor VPAC1 (UniProt P32241 31-457)
T2 sequence (looked up): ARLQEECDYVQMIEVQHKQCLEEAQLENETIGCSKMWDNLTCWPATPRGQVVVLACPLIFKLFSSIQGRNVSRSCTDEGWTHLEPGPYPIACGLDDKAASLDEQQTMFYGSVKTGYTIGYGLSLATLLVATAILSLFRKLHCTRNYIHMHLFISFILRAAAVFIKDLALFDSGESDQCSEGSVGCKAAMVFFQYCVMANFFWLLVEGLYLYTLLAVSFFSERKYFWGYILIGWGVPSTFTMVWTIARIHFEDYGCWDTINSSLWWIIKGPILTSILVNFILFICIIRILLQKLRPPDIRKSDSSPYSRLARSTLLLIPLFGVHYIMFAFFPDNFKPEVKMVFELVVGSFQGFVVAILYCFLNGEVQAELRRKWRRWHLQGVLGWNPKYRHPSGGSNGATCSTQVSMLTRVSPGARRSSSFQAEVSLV

T3: VIP/PACAP receptor VPAC2 (UniProt P41587 24-438)
T3 sequence (looked up): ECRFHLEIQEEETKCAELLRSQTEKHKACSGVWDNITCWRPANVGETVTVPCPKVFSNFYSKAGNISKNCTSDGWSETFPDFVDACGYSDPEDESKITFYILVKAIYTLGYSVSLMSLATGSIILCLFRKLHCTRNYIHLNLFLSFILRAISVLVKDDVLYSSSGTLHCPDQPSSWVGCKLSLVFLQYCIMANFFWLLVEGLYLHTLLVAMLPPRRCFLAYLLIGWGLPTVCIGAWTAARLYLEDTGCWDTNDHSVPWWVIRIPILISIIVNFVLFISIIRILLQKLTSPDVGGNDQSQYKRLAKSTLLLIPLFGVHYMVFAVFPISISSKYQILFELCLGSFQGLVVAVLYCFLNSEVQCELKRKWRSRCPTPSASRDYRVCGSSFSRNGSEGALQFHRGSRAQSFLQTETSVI


Assays:
[1] = molecular target: T1, insulin-degrading enzyme (IDE); assay: In vitro degradation by insulin-degrading enzyme, MALDI-TOF time course; type: in vitro ADME
Description: Reactions were performed in 50 mM Tris, 0.05% Brij-35, pH 9 (Neprilysin), or 50 mM Tris, 20 mM NaCl, pH 7.5 (IDE) and incubated at 37° C.

male Sprague Dawley rats = assay: Acute cardiovascular and renal actions of i.v. infusion in anesthetized rats; type: in vivo; conditions: rat
Description: The protocol is outlined in FIG. 9A.
Rats were then subjected to vessel and bladder cannulation for peptide infusion, BP measurement, blood sampling and urine collection. A polyethylene (PE)-5G tube catheter was placed into the jugular vein for inulin, peptide intravenous infusion. The carotid artery was cannulated with a PE-50 tube catheter for BP measurement (Sonometrics, London, Ontario, Canada) and blood sampling. The bladder was accessed and cannulated with a PE-50 tube catheter for passive urine collection. After completion of the above procedural set up, a 45 min equilibration period was performed that included continuous IV inulin and saline infusion. After the 45 min equilibration period, baseline (Time==Q min) parameters were recorded and one blood sampling (0.7 ml) was performed. The inulin and saline infusion was replaced by a continuous intravenously (i.v.) infusion of equimolar ANP-Ser19/ST or ANP-Ser25/ST for 60 min. The infusion rate was weight adjusted and equals weight*0.7/6000 ml/min. After 60 min infusion (Time=60 min), another blood sampling (0.7 ml) was conducted. […] Urine was collected at the end of the infusion (Time=60 min) and the study (Time=90 min). Urinary sodium was measured with pHOx Ultra (Nova Biomedical, Waltham, Mass.). Urine flow (UV) and urinary sodium excretion (UNaV) were calculated as urine volume or sodium clearance per min, Inulin concentrations were measured with enthrone method and inulin clearance was used for GFR quantification. Urinary cGMP and ANP excretion rate was calculated based on raw values obtained in the urine and UV.

VIP/PACAP receptor VPAC1 = molecular target: T2, VIP/PACAP receptor VPAC1; assay: cell-based or functional assay
VIP/PACAP receptor VPAC2 = molecular target: T3, VIP/PACAP receptor VPAC2; assay: cell-based or functional assay
[2] = 600 pmol/kg/min i.v., 60 minutes infusion

Molecule | time to complete degradation by insulin-degrading enzyme [1] | UV after a clearance period of 30 minutes (male Sprague Dawley rats) | change in mean arterial pressure (MAP) over the infusion period (male Sprague Dawley rats; [2]) | change in plasma cGMP over the infusion period (male Sprague Dawley rats; [2]) | MAP in the 30 minutes clearance period (male Sprague Dawley rats; after 60 min infusion) | potency, cAMP accumulation (HTRF) (VIP/PACAP receptor VPAC1) | potency, cAMP accumulation (HTRF) (VIP/PACAP receptor VPAC2)
CC[C@H](C)[C@@H]1NC(=O)[C@H](CCCNC(=N)N)NC(=O)[C@H](CC(=O)O)NC(=O)[C@H](CCSC)NC(=O)[C@H](CCCNC(=N)N)NC(=O)CNC(=O)CNC(=O)[C@H](Cc2ccccc2)NC(=O)[C@@H](NC(=O)[C@H](CO)NC(=O)[C@H](CO)NC(=O)[C@H](CCCNC(=N)N)NC(=O)[C@H](CCCNC(=N)N)NC(=O)[C@H](CC(C)C)NC(=O)[C@@H](N)CO)CSSC[C@@H](C(=O)N[C@@H](CC(N)=O)C(=O)N[C@@H](CO)C(=O)N[C@@H](Cc2ccccc2)C(=O)N[C@@H](CCCNC(=N)N)C(=O)N[C@@H](Cc2ccc(O)cc2)C(=O)O)NC(=O)CNC(=O)[C@H](CC(C)C)NC(=O)CNC(=O)[C@H](CO)NC(=O)[C@H](CCC(N)=O)NC(=O)[C@H](C)NC(=O)CNC1=O [ANP, Atrial natriuretic factor, reference compound] | ≤ 15 min | normalized | decrease | increase | rebounded |  | 
HSDAVFT(GalNAc)DNYTRLRKQMAVKKYLNSILN [VIP with one O-glycan (GalNAc/Tn) at residue 7] |  |  |  |  |  | 102 nM | 242 nM
HSDAVFT([GalNAc-Gal-NeuAc])DNYTRLRKQMAVKKYLNSILN [VIP with ST O-glycan at Thr7] |  |  |  |  |  | 74 nM | 244 nM
